| melting point [°C] | Structure (SMILES) |
| --- | --- |
| 133 | CCOC(=O)Oc1c(-c2ccccc2)n(C(C)=O)c2cc([N+](=O)[O-])ccc12 |
| 176 | Cc1cc(C(F)(F)F)n2nc(-c3ccc(Cl)cc3)cc2n1 |
| 143 to 147 | CC(=O)c1cc(O)cc(O)c1 |
| 92 | O=C(ON=C(Cc1ccccc1)c1ccccc1)c1ccccc1 |
| 240 | Cn1c(=O)c(C2=NNC(=O)C2=NNc2ccc(Cl)cc2)c(O)c2ccccc21 |
| 225 to 226 | Nc1ccc(-c2cn3c(n2)SCC3)cc1 |
| 266 | CC1CCC2(OC1)OC1CC3C4CCC5CC(O)CCC5(C)C4CC(=O)C3(C)C1C2C (configuration not stated) |
| 78.5 | CNS(=O)(=O)c1ccc(C)cc1 |
| -50.9 | CCCCCCCOC(=O)CC |
| 142 | Cc1ccccc1C=C1C(=O)OC(C)(C)OC1=O |
| -16 | FC(F)(F)C(F)(F)C(F)(F)C(F)(F)C(F)(F)C(F)(F)C(F)(F)C(F)(F)C(F)(F)F |
| 207 to 209 | C=CCSc1nc(=O)[nH]c2c1CCCC2 |
| 101 | Nc1cc([N+](=O)[O-])ccc1F |
| 178 | COc1ccc(N/N=C(\C#N)c2nc(C)c(/N=N/c3ccccc3)s2)cc1 |
| 263 | O=C1CC(c2cccc(C3=NN(c4ccccc4)C(=O)C3)c2)=NN1c1ccccc1 |
| 95 to 97 | OCC(F)(F)C(F)(F)C(F)(F)C(F)(F)C(F)(F)C(F)(F)C(F)(F)C(F)(F)C(F)(F)C(F)F |
| 19 | Clc1cc(Br)ccn1 |
| 115 to 117 | O=C(O)C12CC3CC(C1)CC(C(F)(F)C(F)C(F)(F)F)(C3)C2 (configuration not stated) |
| 175 | CC1=NN(CN2CCOCC2)C(=O)/C1=N\Nc1cc(Cl)c(Cl)cc1Cl |
| 47 to 48 | Brc1ccc2sccc2c1 |

| melting point [°C] | Structure (SMILES) |
| --- | --- |
| 133 to 134 | O=[N+]([O-])c1ccc(C(O)CNCc2ccccc2)cc1 (configuration not stated) |
| 84 | O=[N+]([O-])c1cccc(SSc2cccc([N+](=O)[O-])c2)c1 |
| 68 | O=C(c1ccco1)N1CCNCC1 |
| 161 to 171 | NNC(=O)CSc1ccccc1[N+](=O)[O-] |
| 212 | O=C(O)c1ccc(Br)c(F)c1 |
| 41 | C=C(O[Si](C)(C)C)c1c(C)c(C)c(C)c(C)c1C |
| 160 to 165 | Cc1ccc(N)cc1O |
| 80 to 82 | Cc1ccc(S(=O)(=O)OCCOCCOCCOS(=O)(=O)c2ccc(C)cc2)cc1 |
| 20 | CCCCCCCCc1ccc(N)cc1 |
| 211 | Cc1cccc(N/N=C(\C#N)c2nc(C)c(/N=N/c3ccccc3)s2)c1 |
| 128 | CON=C(C(=O)NC1C(=O)N2C(C(=O)OCOC(=O)C(C)(C)C)=C(C=Cc3scnc3C)CSC12)c1csc(N)n1 (configuration not stated) |
| 141 | CCCCC(NC(=O)OCC1c2ccccc2-c2ccccc21)C(=O)O (configuration not stated) |
| 226 | c1ccc2c(c1)ccc1nc3c(ccc4ccccc43)cc12 |
| 226 | Cc1ccc(N2CSc3nnc(-c4ccc([N+](=O)[O-])cc4)n3C2)cc1 |
| 160 to 161 | Cc1c(C)c(C)c2c(c1C)CC2=O |
| 300 | O=C1c2ccccc2C(=C2c3ccccc3C(=O)c3ccccc32)c2ccccc21 |
| 184 to 185 | O=C(O)c1cc(Br)cnc1Br |
| 48 | Fc1cc(Br)ccc1I |
| 91 | CC1=C(C)CC(Cl)(Cl)C(=O)C(Cl)(Cl)C1 |
| 162 | Cc1ccc2c(c1C)CCC1C2CC=C2CC(C(=O)O)CCC21C (configuration not stated) |

| melting point [°C] | Structure (SMILES) |
| --- | --- |
| 107 to 108 | Cc1ccccc1-c1cc(-c2ccccc2)[nH]n1 |
| 293 | Cn1c(=O)c(C2=NNC(=O)C2=CNc2ccc(Br)cc2)c(O)c2ccccc21 |
| 33 to 35 | CCOC(=O)C=C(C)N |
| 69.5 | CCCCNC(=O)COC(=O)c1ccccc1 |
| 157 | COc1ccc2c(c1O)CN1CCC(=O)CC1C2O (configuration not stated) |
| 85.3 | Cc1cc(O)c(C)c(C)c1C |
| 159 to 160 | c1ccc2cc3c(cc2c1)CC1OC1C3 (configuration not stated) |
| 251 to 252 | C/C(=N\c1cc(C)ccc1O)c1c(O)c2ccccc2n(-c2ccccc2)c1=O |
| 128 to 131 | CON1C(=O)C(=O)N(OC)C2CCCCC21 (configuration not stated) |
| 186 | Nc1ccc(/C(=C\c2ccccc2N)C(=O)O)cc1 |
| 39 | CC(COc1ccccc1)N(CCCl)Cc1ccccc1 (configuration not stated) |
| 107 to 108 | O=C1CCCN1c1ccc(S(=O)(=O)Cl)cc1 |
| 144 to 145 | O=Cc1nc2ccccc2c2ncccc12 |
| 81.5 to 82.5 | Clc1nccc(-c2ccco2)n1 |
| 83 to 84.5 | ClCc1ccc(-c2ncccn2)cc1 |
| 150 to 153 | O=C(O)[C@@H]1CCCC[C@H]1C(=O)c1ccccc1 (relative stereo) |
| 172 | Cc1nc(Cl)c(C(N)=O)c(C)c1Cl |
| 9 | COC(=O)CCCCC(=O)O |
| 117 | COc1ccc(-c2nn(-c3ccccc3)cc2CNc2ccc(F)c(Cl)c2)cc1 |
| 88 to 91 | NC(=S)CSc1ccccc1 |

More lines, now with the values behind:

| Structure (SMILES) | melting point [°C] |
| --- | --- |
| Oc1cc(F)c(F)cc1F | 41 |
| N#C/C(=N/Nc1cccc([N+](=O)[O-])c1)c1nc(-c2ccccc2)cs1 | 215 |
| CC1CC2=CC(=O)CCC2(C)C2CCC3(C)C(CCC3(C)O)C12 (configuration not stated) | 164 |
| Cc1ccc(S(=O)(=O)n2cccc2)cc1 | 101 |
| CCCC/C=C/CCCCC | -61.1 |
| Cc1cc(O)no1 | 86.5 |
| CC1(c2ccccc2)C(=O)NC(=O)NC1=O | 224 |
| O=C(O)C1NCCS1 (configuration not stated) | 182 |
| Cc1nnc(-c2cccc(S(=O)(=O)Cl)c2)o1 | 56 to 59 |
| O=C1CC2(CCCC2)CC(=O)O1 | 64 to 66 |
| CN(C)c1ccc(C(=O)NN)cc1 | 175 |
| O=Cc1ccc(Br)cc1 | 67 |
| COc1ncc(F)c2nc(S(=O)(=O)Nc3c(F)cccc3F)nn12 | 194 |
| NC(=S)COc1ccccc1Cl | 116 to 117 |
| O=C(O)C(F)(F)C(F)(F)C(F)(F)C(F)(F)C(F)(F)C(F)(F)F | 31 to 36 |
| CC(=O)OC1CCC2(C)C(C1)CC1(OCCO1)C1C3CCC(=O)C3(C)CCC12 (configuration not stated) | 240 |
| CN(CC(=O)O)C(=O)c1ccccc1 | 101 to 105 |
| CCCCNC(=O)NS(=O)(=O)c1ccc(N)cc1 | 144 |
| CCOC(=O)c1c(NC(=O)CN2CCCCC2)sc2c1CCCC2 | 100 to 101 |
| Nc1c(CN2CCCCCC2)c(=O)oc2ccccc12 | 153 |
| Nc1c(C=NNc2ccccc2)ccc2c1C(=O)c1ccccc1C2=O | 209 to 211 |
| O=C(O)c1ccc(N2C(=O)C3C(C(=O)c4ccc(Cl)cc4)=NN(c4ccccc4)C3C2=O)cc1 (configuration not stated) | 285 |
| C=C=C | -136 |

| Structure (SMILES) | melting point [°C] |
| --- | --- |
| C#CC(C)(O)CC (configuration not stated) | 30.5 |
| O[C@H]1CCC[C@@H]1O | 55 |
| CCCCCCc1ccc2ccccc2c1 | -3 |
| Fc1cc(Br)ccc1-c1ccccc1 | 40 |
| Cc1cccc(NC(=O)c2cncc(Cl)n2)c1 | 84 |
| O=Cc1ccc(-c2ccsc2)cc1 | 101 to 102 |
| CC12CCC3(CC1CCC1C2CCC2(C)C1CCC2(C)O)OCCO3 (configuration not stated) | 192 to 193 |
| Cc1nc(C(C)(C)C)sc1C(=O)O | 156 |
| CC(C)(C)[C@@H]1NC(=O)CNC1=O | 300 |
| Cc1c(C(N)=O)cc([N+](=O)[O-])cc1[N+](=O)[O-] | 177 |
| COC(=O)c1cc2ccsc2[nH]1 | 127 to 129 |
| NCCc1cccc(CCO)c1 | 264 |
| Cc1c(C)n(C=O)c2ccccc12 | 89 |
| O=C(O)C(Cc1ccccc1)Cc1ccccc1 | 90 |
| CCOC(=O)Nc1ccc(Cl)cc1 | 64 to 66 |
| CC1=NNC(=O)C1=NNc1ccccc1C(=O)O | 239 |
| NC(=O)/C(=C\c1ccccc1O)c1nc2ccccc2s1 | 210 |
| O=C1C=C[C@H](CO)O1 | 39 to 45 |
| C=C(Br)CC1(C(C)C)C(=O)NC(=O)NC1=O | 177 |
| C1CCC(P(C2CCCCC2)C2CCCCC2)CC1 | 77 to 83 |
| NC(=O)C(=O)NC(c1ccccc1)C1(c2ccccc2)OCCO1 (configuration not stated) | 203 |
| c1ccc(NNc2ccccc2)cc1 | 131 |
| N#CCN | 101 |

| Structure (SMILES) | melting point [°C] |
| --- | --- |
| CCCCCCCCCCCCCCCC(=O)OC(=O)CCCCCCCCCCCCCCC | 64 |
| CC(CO)c1c(O)c(O)c2c(c1O)C(=O)C(O)=C1C(C)(C)CCCC12C (configuration not stated) | 237 |
| CC(C)OC(=O)c1cc(-c2nn(C)c(C(F)(F)F)c2Br)c(F)cc1Cl | 80 |
| CCS(=O)(=O)C(C)(C)S(=O)(=O)CC | 126 |
| CCCCOC(N)=O | 51 to 56 |
| CCCCCCCCCC(=O)CCCCCCCCC | 65.5 |
| COC(=O)c1sc2scc(C)c2c1C | 136 to 139 |
| Nc1ccc(N)c2c1C(=O)c1c(N)ccc(N)c1C2=O | 285 |
| Cc1nc(/C(C#N)=N/Nc2ccccc2Cl)sc1/N=N/c1ccc(Br)cc1 | 241 |
| O=C(O)COc1nn(Cc2ccccc2)c2ccccc12 | 160 |
| O=C(NCCCCO)OCC1c2ccccc2-c2ccccc21 | 115 to 117 |
| CCCCCCCCCOC(C)=O | -26 |
| N#CC1(O)CCCCC1 | 35 |
| CN(C)c1ccc(C=O)c(Cl)c1 | 83 to 84 |
| COC(=O)C#Cc1cccc(C#CC(=O)OC)c1 | 93 |
| Cc1nc([N+](=O)[O-])c(Br)[nH]1 | 256 to 257 |
| COc1cc(/C=C/[N+](=O)[O-])c([N+](=O)[O-])cc1OC | 168 to 169 |
| CN(C)NN=C1N=CN=C1C(N)=O | 205 |
| CCC1CC2CC3c4[nH]c5cc(OC)ccc5c4CCN(C2)C13 (configuration not stated) | 214 |
| Brc1cccc(Br)c1Oc1ccccc1 | < 20 |
| CC(C(=O)O)P(=O)(O)O (configuration not stated) | 120 |
